# Values of other authors as cited in patent US6718687B2 (priority 2002, dated 2004).
# System: mosquitoes
smiles,measurement,setting,value
"C=CC(O)CCCCC (centres unmarked) [Octenol, 1-octen-3-oL]",results from traps baited with Octenol and CO2 compared with CO2 alone,Octenol and CO2 versus CO2 alone,not significant
same,effectiveness as attractant for mosquitoes,"Octenol at the release rate tested, unless CO2 was also used",not an effective attractant
